# Measurements: patent US10112940B2, “Histone demethylase inhibitors” (Celgene Quanticel Research, Inc., priority 2014, dated 2018)
# What was measured:
# [1] = biological target: JMJD2C (Homo sapiens (Human), UniProt Q9H3R0); assay: JMJD2C in vitro enzyme inhibition assay (TR-FRET); format: biochemical; conditions: 0.3 nM JMJD2C, 300 nM H3K9me3-biotin peptide, 2 μM alpha-ketoglutaric acid, 30 minutes
# Experimental: This assay determines the ability of a test compound to inhibit JMJD2C demethylase activity. Baculovirus expressed JMJD2C (GenBank Accession #BC143571, AA 2-372) was purchased from BPS Bioscience (Cat#50105).
# The ability of test compounds to inhibit the activity of JMJD2C was determined in 384-well plate format under the following reaction conditions: 0.3 nM JMJD2C, 300 nM H3K9me3-biotin labeled peptide (Anaspec cat #64360), 2 μM alpha-ketoglutaric acid in assay buffer of 50 mM HEPES, pH7.3, 0.005% Brij35, 0.5 mM TCEP, 0.2 mg/ml BSA, 50 μM sodium L-ascorbate, and 2 μM ammonium iron(II) sulfate. Reaction product was determined quantitatively by TR-FRET after the addition of detection reagent Phycolink Streptavidin-allophycocyanin (Prozyme) and Europium-anti-di-methylated histone H3 lysine 9 (H3K9me2) antibody (PerkinElmer) in the presence of 5 mM EDTA in LANCE detection buffer (PerkinElmer) at a final concentration of 50 nM and 1 nM, respectively.
# The assay reaction was initiated by the following: 2 μl of the mixture of 900 nM H3K9me3-biotin labeled peptide and 6 μM alpha-ketoglutaric acid with 2 μl of 11-point serial diluted inhibitor in 3% DMSO were added to each well of the plate, followed by the addition of 2 μl of 0.9 nM JMJD2C to initiate the reaction. The reaction mixture was incubated at room temperature for 30 minutes, and terminated by the addition of 6 μl of 5 mM EDTA in LANCE detection buffer containing 100 nM Phycolink Streptavidin-allophycocyanin and 2 nM Europium-anti-H3K9me2 antibody. Plates were read by EnVisionMultilabel Reader in TR-FRET mode (excitation at 320 nm, emission at 615 nm and 665 nm) after 1 hour incubation at room temperature. A ratio was calculated (665/615) for each well and fitted to determine inhibition constant (IC50).
# The ability of the compounds disclosed herein to inhibit demethylase activity was quantified and the respective IC50 value was determined. Table 3 provides the IC50 values of various compounds disclosed herein.
# [2] = test system: KYSE-150 esophageal carcinoma cell line; assay: In vitro cell-based assay: BrdU incorporation cell proliferation ELISA; design: species or system human; conditions: Homo sapiens, KYSE-150 cells, 168 hours compound incubation, read-out: Cellular IC50
# Experimental: Cell lines tested include the JMJD2C gene amplified cell line KYSE-150. This is a quantitative ELISA assay measuring DNA incorporation of BrdU during S-phase as a direct readout of cellular proliferation.
# Assay Principle: This is a colorimetric immunoassay for the quantification of cell proliferation. Cells treated for 168 hours with test compounds are assayed for their ability to go through S-phase as a measure of their proliferative potential.
# Assay Method: The human KYSE-150 (SMAD4 mut, TP53 mut) esophageal carcinoma cell line was seeded at 2,000 cells/well on a 96-well tissue culture treated plate. After an overnight incubation, cells were treated with compound in an 11-point dilution series with final concentrations ranging from 100 μM to 2 nM. Cells were then incubated in the presence of compound for 168 hours. After compound incubation the cells were assayed using a BrdU Cell Proliferation ELISA (Roche). The cells were first incubated with BrdU labeling reagent for 2 hours. After 2 hours, the BrdU incorporated cells were fixed and denatured, probed with an anti-BrdU-Peroxidase antibody for 1.5 hours and washed. Finally, a tetramethylbenzidine peroxidase substrate was added to each well for 15 minutes followed by a H2SO4 stop solution. The plate was read at 450 nm, and the raw optical density data was transferred into XLFit (IDBS) for IC50 calculation using the formula: fit=(D+((Vmax*(x^n))/((x^n)+(Km^n))))
# Table 4 provides the cellular IC50 values of various compounds disclosed herein.
# Sequence of JMJD2C (Q9H3R0 2-372): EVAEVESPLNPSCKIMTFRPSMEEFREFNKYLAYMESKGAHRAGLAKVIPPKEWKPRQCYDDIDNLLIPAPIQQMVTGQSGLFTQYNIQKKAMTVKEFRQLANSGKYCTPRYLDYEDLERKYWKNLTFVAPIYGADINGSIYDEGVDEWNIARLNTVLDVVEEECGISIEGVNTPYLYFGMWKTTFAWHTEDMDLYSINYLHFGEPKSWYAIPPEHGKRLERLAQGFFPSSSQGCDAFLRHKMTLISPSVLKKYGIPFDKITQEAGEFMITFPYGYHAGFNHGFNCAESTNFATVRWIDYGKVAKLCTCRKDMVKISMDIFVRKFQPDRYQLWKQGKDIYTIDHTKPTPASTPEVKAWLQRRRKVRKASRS
IC50 [1],IC50 [2],Compound
0.1 to 1 µM,–,"Cc1cccc(N(C)c2ccc(Oc3nc(O)c4ccncc4n3)cc2)c1 [Example 21, 2-[4-(Methyl-m-tolyl-amino)-phenoxy]-pyrido[3,4-d]pyrimidin-4-ol]"
1 to 10 µM,1 to 10 µM,"CCc1ccc(N(C)c2ccc(Oc3nc(O)c4ccncc4n3)cc2)cc1OCCOC [Example 66, 2-[4-[4-ethyl-3-(2-methoxyethoxy)-N-methylanilino]phenoxy]pyrido[3,4-d]pyrimidin-4-ol]"
0.1 to 1 µM,0.1 to 1 µM,"CN(C)c1cccc(N(C)c2ccc(Oc3nc(O)c4ccncc4n3)cc2)c1 [Example 47, 2-[4-[3-(dimethylamino)-N-methylanilino]phenoxy]pyrido[3,4-d]pyrimidin-4-ol]"
1 to 10 µM,≤ 0.1 µM,"CN(c1ccc(CC(F)(F)F)cc1)c1ccc(Oc2nc(O)c3ccncc3n2)cc1 [Example 106, 2-[4-[N-methyl-4-(2,2,2-trifluoroethyl)anilino]phenoxy]pyrido[3,4-d]pyrimidin-4-ol]"
0.1 to 1 µM,–,"COc1ccc(N(C)c2ccc(Oc3nc(O)c4ccncc4n3)cc2)cc1 [Example 16, 2-{4-[(4-Methoxy-phenyl)-methyl-amino]-phenoxy}-pyrido[3,4-d]pyrimidin-4-ol]"
0.1 to 1 µM,> 10 µM,"Oc1nc(Oc2ccc(N3CCOC(c4ccccc4)C3)cc2)nc2cnccc12 (centres unmarked) [Example 26, 2-[4-(2-phenyl-morpholin-4-yl)-phenoxy]-pyrido[3,4-d]pyrimidin-4-ol]"
1 to 10 µM,1 to 10 µM,"CN(c1ccc(Oc2nc(O)c3ccncc3n2)cc1)c1cccc(Cl)c1 [Example 95, 2-[4-(3-chloro-N-methylanilino)phenoxy]pyrido[3,4-d]pyrimidin-4-ol]"
0.1 to 1 µM,0.1 to 1 µM,"COCCN(c1ccc(Oc2nc(O)c3ccncc3n2)cc1)c1ccc(C(C)C)cc1 [Example 102, 2-[4-[N-(2-methoxyethyl)-4-propan-2-ylanilino]phenoxy]pyrido[3,4-d]pyrimidin-4-ol]"
0.1 to 1 µM,0.1 to 1 µM,"CCc1ccc(N(C)c2ccc(Oc3nc(O)c4ccncc4n3)cc2)nc1 [Example 97, 2-[4-[(5-ethylpyridin-2-yl)-methylamino]phenoxy]pyrido[3,4-d]pyrimidin-4-ol]"
0.1 to 1 µM,–,"CN(c1ccccc1)c1ccc(Oc2nc(O)c3ccncc3n2)cc1F [Example 10, 2-[3-Fluoro-4-(methyl-phenyl-amino)-phenoxy]-pyrido[3,4-d]pyrimidin-4-ol]"
1 to 10 µM,> 10 µM,"Oc1nc(Oc2ccc3c(ccn3-c3ccccc3)c2)nc2cnccc12 [Example 103, 2-(1-phenylindol-5-yl)oxypyrido[3,4-d]pyrimidin-4-ol]"
≤ 0.1 µM,> 10 µM,"COCCNCC(C)c1ccc(N(C)c2ccc(Oc3nc(O)c4ccncc4n3)cc2)cc1 (centres unmarked) [Example 100, 2-[4-[4-[1-(2-methoxyethylamino)propan-2-yl]-N-methylanilino]phenoxy]pyrido[3,4-d]pyrimidin-4-ol]"
1 to 10 µM,≤ 0.1 µM,"CN(c1ccc(Oc2nc(O)c3ccncc3n2)cc1)c1ccc(C2(C(F)(F)F)CC2)cc1 [Example 107, 2-[4-[N-methyl-4-[1-(trifluoromethyl)cyclopropyl]anilino]phenoxy]pyrido[3,4-d]pyrimidin-4-ol]"
0.1 to 1 µM,> 10 µM,"CN(c1ccc(Oc2nc(O)c3ccncc3n2)cc1)c1cccc(S(C)(=O)=O)c1 [Example 56, 2-[4-(N-methyl-3-methylsulfonylanilino)phenoxy]pyrido[3,4-d]pyrimidin-4-ol]"
0.1 to 1 µM,–,"COc1cccc(N(C)c2ccc(Oc3nc(O)c4ccncc4n3)cc2)c1 [Example 17, 2-{4-[(3-Methoxy-phenyl)-methyl-amino]-phenoxy}-pyrido[3,4-d]pyrimidin-4-ol]"
1 to 10 µM,–,"Oc1nc(Oc2ccc3c(ccn3C3CCCC3)c2)nc2cnccc12 [Example 31, 2-(1-cyclopentyl-1H-indol-5-yloxy)-pyrido[3,4-d]pyrimidin-4-ol]"

IC50 [1],IC50 [2],Compound
0.1 to 1 µM,–,"Oc1nc(Oc2ccc3nn(Cc4ccccc4)cc3c2)nc2cnccc12 [Example 14, 2-[2-Benzyl-2H-indazol-5-yloxy]pyridino[3,4-d]pyrimidin-4-ol]"
0.1 to 1 µM,–,"CC(C)c1cccc(N(C)c2ccc(Oc3nc(O)c4ccncc4n3)cc2)c1 [Example 93, 2-[4-(N-methyl-3-propan-2-ylanilino)phenoxy]pyrido[3,4-d]pyrimidin-4-ol]"
0.1 to 1 µM,–,"Cc1ccc(N(C)c2ccc(Oc3nc(O)c4ccncc4n3)cc2)cc1 [Example 20, 2-[4-(Methyl-p-tolyl-amino)-phenoxy]-pyrido[3,4-d]pyrimidin-4-ol]"
1 to 10 µM,–,"CN(Cc1ccccc1)c1cccc(Oc2nc(O)c3ccncc3n2)c1 [Example 9, 2-[3-(Benzyl-methyl-amino)-phenoxy]-pyrido[3,4-d]pyrimidin-4-ol]"
0.1 to 1 µM,–,"Oc1nc(Oc2ccc(N3CCCC(c4ccccc4)C3)cc2)nc2cnccc12 (centres unmarked) [Example 25, 2-[4-(3-phenyl-piperidin-1-yl)-phenoxy]-pyrido[3,4-d]pyrimidin-4-ol]"
1 to 10 µM,–,"Oc1nc(Oc2ccc3c(c2)CCCN3c2ccccc2)nc2cnccc12 [Example 33, 2-(1-phenyl-1,2,3,4-tetrahydro-quinolin-6-yloxy)-pyrido[3,4-d]pyrimidin-4-ol]"
≤ 0.1 µM,–,"CC(C)c1ccc(N(C)c2ccc(Oc3nc(O)c4ccncc4n3)cc2)nc1 [Example 34, 2-{4-[(5-isopropyl-pyridin-2-yl)-methyl-amino]-phenoxy}-pyrido[3,4-d]pyrimidin-4-ol]"
0.1 to 1 µM,–,"CC(C)c1ccc(N(c2ccc(Oc3nc(O)c4ccncc4n3)cc2)C2CCOCC2)cc1 [Example 118, 2-(4-((4-isopropylphenyl)(tetrahydro-2H-pyran-4-yl)amino)phenoxy)pyrido[3,4-d]pyrimidin-4-ol]"
0.1 to 1 µM,–,"CC(C)c1ccc(N(C)c2ccc(Oc3nc(O)c4ccncc4n3)cc2)cc1N1CCOCC1 [Example 35, 2-{4-[(4-isopropyl-3-morpholin-4-yl-phenyl)-methyl-amino]-phenoxy}-pyrido[3,4-d]pyrimidin-4-ol]"
0.1 to 1 µM,–,"CN(c1ccc(Oc2nc(O)c3ccncc3n2)cc1)c1ccc(N2CCOCC2)cc1 [Example 18, 2-{4-[Methyl-(4-morpholin-4-yl-phenyl)-amino]-phenoxy}-pyrido[3,4-d]pyrimidin-4-ol]"
0.1 to 1 µM,–,"CC(C)c1ccc(N(CC(F)(F)F)c2ccc(Oc3nc(O)c4ccncc4n3)cc2)cc1 [Example 114, 2-{4-[(4-isopropyl-phenyl)-(2,2,2-trifluoro-ethyl)-amino]-phenoxy}-pyrido[3,4-d]pyrimidin-4-ol]"
1 to 10 µM,–,"Oc1nc(Oc2ccc3ccn(Cc4ccccc4)c3c2)nc2cnccc12 [Example 8, 2-(1-Benzyl-1H-indol-6-yloxy)-pyrido[3,4-d]pyrimidin-4-ol]"
≤ 0.1 µM,–,"CN(CC1CCCc2ccccc21)c1ccc(Oc2nc(O)c3ccncc3n2)cc1 (centres unmarked) [Example 28, 2-{4-[methyl-(1,2,3,4-tetrahydro-naphthalen-1-ylmethyl)-amino]-phenoxy}-pyrido[3,4-d]pyrimidin-4-ol]"
0.1 to 1 µM,–,"CC(C)Cc1ccc(N(C)c2ccc(Oc3nc(O)c4ccncc4n3)cc2)cc1 [Example 63, 2-[4-[N-methyl-4-(2-methylpropyl)anilino]phenoxy]pyrido[3,4-d]pyrimidin-4-ol]"
0.1 to 1 µM,–,"Oc1nc(Oc2ccc3cnn(Cc4ccccc4)c3c2)nc2cnccc12 [Example 11, 2-(1-Benzyl-1H-indazol-6-yloxy)-pyrido[3,4-d]pyrimidin-4-ol]"

Compound,IC50 [1],IC50 [2]
"CN1CCC(N(C)c2cccc(N(C)c3ccc(Oc4nc(O)c5ccncc5n4)cc3)c2)CC1 [Example 89, 2-[4-[N-methyl-3-[methyl-(1-methylpiperidin-4-yl)amino]anilino]phenoxy]pyrido[3,4-d]pyrimidin-4-ol]",≤ 0.1 µM,1 to 10 µM
